In patent US11001802B2, “Surface of a vessel with polystyrene, nitrogen, oxygen and a static sessile contact angle for attachment and cultivation of cells” (Nunc A/S, priority 2008, dated 2021):

Legend:
[1] = system: HEK293 cells; assay: HEK293 cell attachment, number of viable cells by LDH activity (Example 19); type: cell-based, human; settings: Surface 4 and CellBIND surface, 2.0 and 5.0 μM
Excerpt: Human embryonic kidney cells 293 (HEK293, ECACC no. 85120602) were maintained in Eagle's Minimum Essential Medium (EMEM; Lonza, Verviers, Belgium) containing 10% fetal bovine serum (FBS; Lonza). The cells were adapted to Pro293a-CDM medium (Lonza), a chemically defined, serum-free medium optimized for cultivation of adherent HEK293, by gradually and over several passages using the sequential ratios of 3:1, 1:1, 1:3, 1:7, and finally 0:1 of serum-supplemented EMEM and Pro293a-CDM medium. For maintenance and adaptation, HEK293 cells were seeded at 2.0×10^4 cells/cm^2 in 75-cm^2 flasks with Nunclon Delta™ surface (Thermo Fisher Scientific, Roskilde, Denmark) and passaged at 70-80%/confluence using Trypsin/EDTA for dissociation.
Another 100 μl of Pro293a-CDM medium with HEK293 cells was added to the wells (4.0×10^4 cells/cm^2). […]
The number of viable cells in the wells was then determined using a lactate dehydrogenase (LDH) activity kit from Roche, Switzerland. […] The reaction was stopped by adding 50 μl of 1.0 M HCl, and the absorbance at 490 nm was measured in a microplate reader (Genios Pro; Tecan, Austria). The number of cells was calculated using the A490 values from these samples and from standards containing LDH from a known number of cells. […]

[2] = system: HEK293 cells; assay: HEK293 growth over three passages, total cell number (Example 22); type: cell-based, human; settings: Surface 4 and Nunclon Delta surface; 2.5 μM Y-27632
Experimental: EMEM (500 μl) supplemented with 10% FBS containing 5.0 μM Y-27632 was dispensed in wells of Multidish 24-well plates with Surface 4 or Nunclon Delta™ surface. Another 500 μl of EMEM supplemented with 10% FBS and containing HEK293 cells was added to the wells (2.0×10^4 cells/cm^2), and the cultures were incubated at 37° C. in a humidified atmosphere of 5% CO2 in air for 3 days. Cells were passaged by treatment with Trypsin/EDTA (Lonza, Verviers, Belgium) for two minutes at 37° C., and the total cell number was determined using a NucleoCount Cell Counter (Chemometec A/S, Allered, Denmark). For successive passages, HEK293 cells were seeded at 2.0×10^4 cells/cm^2. The growth of HEK293 cells on Surface 4 and Nunclon Delta™ surface was enhanced by the presence of 2.5 μM Y-27632 (FIG. 34).

[3] = system: H9 human ES cells; assay: H9 human ES cell attachment to surface Nunc4 in defined media mTeSR (Example 14); type: cell-based; settings: 20 micromolar Y-27632
Experimental: Passage 49 H9 human ES cells were passaged twice in the define media, mTeSR™, on Matrigel™-treated plasticware. The cells were then LIBERASE treated and plated onto the surface modified plate Nunc4 in mTeSR™ media. Cells were either plated in media with or without 20 micromolar Y-27632. Wells were also treated with various proteins for 30 minutes prior to seeding cells (no treatment, 0.1% gelatin, 2% BSA, 0.34 mg/ml rat Collagen I, 1:1000 Matrigel™, or 1:5000 Matrigel™) to determine if these proteins could promote human ES cell adhesion in defined media with or without Y-27632 (FIG. 28). […] However, when 20 micromolar Y-27632 was added to define mTeSR™ media, human ES cells adhered to surface Nunc4. Furthermore, this adherence was equivalent in untreated wells and wells treated with 0.1% gelatin, 2% BSA, and 0.34 mg/ml rat Collagen I. There was a modest increase in human ES cell attachment in wells with low concentrations of Matrigel™ (1:1000 and 1:5000 dilutions), however these concentrations of Matrigel™ were insufficient to promote adhesion in the absence of Y-27632.

[4] = system: human ES cell line H1; assay: Attachment, plating efficiency and passage time of H1 human ES cells on surface modified plates (Examples 3, 4); type: cell-based
Experimental: Human ES cells of the line H1, at passage 49 were maintained in MEF conditioned media on Nunclon Delta™ plates treated with a 1:30 dilution of growth factor reduced Matrigel™, prior to study. Cells were dissociated from the surface for passage by 1 mg/ml collagenase dissociation or by manual scraping.
These cells were then seeded onto two untreated wells of the surface modified plates (6-well format). Additionally, one well of each plate was treated with 0.1% xeno-free human gelatin as a control. Cells were also plated directly onto untreated and gelatin-treated wells of Costar™ (cat. no. 3516; Corning, Corning, N.Y.), Falcon™ (cat. no. 351146; Becton Dickinson, Franklin Lakes, N.J.) and Nunclon Delta™ (cat. no. 140675; Thermo Fisher Scientific, Roskilde, Denmark) 6-well plates for negative controls, and plated onto wells treated with 1:30 dilution of growth factor reduced Matrigel™ to provide as positive controls. In all treatments cells were maintained in MEF conditioned media.
Human ES cells of the line H1, at passage 49 were maintained in MEF conditioned media on Nunclon Delta™ plates treated with a 1:30 dilution of growth factor reduced Matrigel™, prior to study. Cells were dissociated from the surface for passage by 1 mg/ml collagenase dissociation.
These cells were then seeded onto untreated wells of surface modified plates (6-well format). […]

C[C@@H](N)[C@H]1CC[C@H](C(=O)Nc2ccncc2)CC1 [Surface Y-27632, Y-27632]
attachment of HEK293 cells ([1]; EMEM with 10% FBS): enhanced attachment
attachment of HEK293 cells ([1]; Pro293a-CDM medium): enhanced attachment
growth of HEK293 cells over 3 passages [2]: enhanced
adherence of human ES cells in defined mTeSR media [3]: adhered
plating efficiency ([4]; H1 (p52) on surface modified plates, 10 μM Y-27632 in MEF conditioned media for 48 hours): significantly increased plating efficiency
readiness for passage 4 days after plating ([4]; H1 on surface modified plates, 10 μM Y-27632 or 0.5 ng/ml C3 exotransferase): could be passaged 4 days after plating
